Experiments:
[1] = tested on: RS (RNA, aptamer) GGGAGACGCACCUGAAUCAACAUACGUGAACGCGACUCUAUCUCCCCAAAUUAGGCGUCAGAUAGCGGCACGGAGUUACACGAUCCGUAACUAGUCGCGUCAC; assay: stopped-flow fluorescence, global fit; details: K+ 125 mM, Mg2+ 5 mM; 40 mM HEPES, pH 7.4; association rate, two-step model 5; k-1 2.9±0.7, k2 23±1 s^-1
[2] = tested on: A (CFX aptamer A) (RNA, aptamer) GGGAGACGCAACAGACUAGGUUGUGACUGCUUAGGCAGUUGUGGACGGCUAAGCCCACCAGAGGUCCGUAACUAGUCGCGUCAC; assay: stopped-flow fluorescence, global fit; details: K+ 125 mM, Mg2+ 5 mM; 40 mM HEPES, pH 7.4; association rate, reversible two-step model 4; k-1 1.6±0.2, k2 4±0.2, k-2 2.3±0.2 s^-1
[3] = tested on: preRS (RNA, aptamer) GGGAGACGCAACUGAAUGAACAUAAGUGAACGCGACUCUAUCUCCCUAAACUAGGAGUCAUAUAGCGGCACGGAGUUACACGAUCCGUAACUAGUCGCGUCAC; assay: stopped-flow fluorescence, global fit; details: K+ 125 mM, Mg2+ 5 mM; 40 mM HEPES, pH 7.4; association rate, two-step model 5; k-1 5.4±0.4, k2 12.1±0.7 s^-1
[4] = tested on: A (CFX aptamer A) (RNA, aptamer) GGGAGACGCAACAGACUAGGUUGUGACUGCUUAGGCAGUUGUGGACGGCUAAGCCCACCAGAGGUCCGUAACUAGUCGCGUCAC; assay: fluorescence titration (ligand quenching); details: K+ 125 mM, Mg2+ 10 mM; 40 mM HEPES, pH 7.4, 25 °C; 50 nM CFX; Mg2+ series

- k1 [1]: 7.62 ± 0.11 µM/s
- k1 [2]: 10 ± 0.2 µM/s
- k1 [3]: 4.31 ± 0.06 µM/s
- KD [4]: ~ 13 nM
SMILES: O=C(O)c1cn(C2CC2)c2cc(N3CCNCC3)c(F)cc2c1=O

Source: article PMC8053125 (2021)
